Measurements taken from patent EP4682156A1, “LINKER AND DRUG CONJUGATE USING SAME, AND ANTIBODY-DRUG CONJUGATE AND USE THEREOF” (Shanghai Affinity Biopharmaceutical Co., Ltd., priority 2023, dated 2024).
Read-outs that look alike come from different tables or passages of the source. *1 amine or outer side, *2 acyl side, *3 side chain or, on linkers, in order; H or OH if unused. Where a SMILES comes first, the peptide text is derived from it. [ ]: non-standard residue; d: D form. The star is where a group is joined. Doxorubicin(3'-N) = COc1cccc2c1C(=O)c1c(O)c3c(c(O)c1C2=O)C[C@@](O)(C(=O)CO)C[C@@H]3O[C@H]1C[C@H](N*)[C@H](O)[C@H](C)O1; Exatecan = CC[C@@]1(O)C(=O)OCc2c1cc1n(c2=O)Cc2c-1nc1cc(F)c(C)c3c1c2[C@@H](N*)CC3; X8 = CCc1c2c(nc3ccc(O)cc13)-c1cc3c(c(=O)n1C2)COC(=O)[C@@]3(CC)OCN*; X5 = CCc1c2c(nc3ccc(OCN*)cc13)-c1cc3c(c(=O)n1C2)COC(=O)[C@]3(O)CC; X1 = O=C(CCCCCOC1O[C@H](CO)[C@H](O)[C@H](O)[C@H]1N[*:1])[*:2]; X9 = Nc1ccn([C@@H]2O[C@H](COCN*)[C@@H](O)C2(F)F)c(=O)n1; Dolaproine = CO[C@@H]([C@@H]1CCCN1)[C@@H](C)C(=O)O; Hexanoyl(6-maleimido) = O=C1C=CC(=O)N1CCCCCC(=O)*; Dil = CC[C@H](C)[C@H](NC)[C@@H](CC(=O)O)OC; X4 = CCCCc1nc2c(N)nc3ccccc3c2n1CCCCN*; X7 = O=C(OC1[C@H]2CCC#CCC[C@@H]12)*; DBCO = C1#Cc2ccccc2N(*)Cc2ccccc21; NHCH2OCH2CO = O=C(COCN[*:1])[*:2]; X3 = C[C@@H](N*)[C@@H](O)c1ccccc1; X6 = O=C1C=C(Br)C(=O)N1CCC(=O)*; X2 = COCCOCCOCCOCCOCCOCC(=O)*; Suc = O=C(CCC(=O)[*:2])[*:1]; NMeV = CN[C@H](C(=O)O)C(C)C; PEG3 = NCCOCCOCCOCCC(=O)O; GABA = NCCCC(=O)O

Legend:
cathepsin L = cathepsin L (Homo sapiens, UniProt P07711); experiment: Enzymatic cleavage by cathepsin L, released DXD quantified by HPLC; assay type: biochemical; set-up: Enzymatic cleavage efficiency %: concentration or dose not given beside the values
[1] = Stability in human plasma; details: within 20 hours
[2] = human
Human Fibrosarcoma = test system: Human Fibrosarcoma; set-up: species or system Nude mice; details: mouse, in vivo

Sequence of cathepsin L (P07711 114-333): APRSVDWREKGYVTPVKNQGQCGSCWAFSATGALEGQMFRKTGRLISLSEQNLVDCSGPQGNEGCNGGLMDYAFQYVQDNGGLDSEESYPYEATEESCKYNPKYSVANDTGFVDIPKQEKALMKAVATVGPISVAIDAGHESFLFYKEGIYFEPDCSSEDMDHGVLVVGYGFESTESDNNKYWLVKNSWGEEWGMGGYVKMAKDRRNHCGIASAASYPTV

Row | SMILES | Enzymatic cleavage efficiency % (cathepsin L) [%] | Substrate content % [1] [%] | also measured
1 | CC[C@H](C)[C@@H]([C@@H](CC(=O)N1CCC[C@H]1[C@H](OC)[C@@H](C)C(=O)N[C@H](C)[C@@H](O)c1ccccc1)OC)N(C)C(=O)[C@@H](NC(=O)[C@H](C(C)C)N(C)C(=O)[C@H](CC(C)C)NC(=O)[C@H](Cc1ccccc1)NC(=O)CNC(=O)CNC(=O)CCCCCN1C(=O)C=CC1=O)C(C)C [S5] ({Hexanoyl(6-maleimido)}-GGFL[NMeV]V[Dil][Dolaproine]-X3) | 93.1 | – | –
2 | CCCCc1nc2c(N)nc3ccccc3c2n1CCCCNC(=O)[C@H](CC(C)C)NC(=O)[C@H](Cc1ccccc1)NC(=O)CNC(=O)CNC(=O)CCCCCN1C(=O)C=CC1=O [S3] ({Hexanoyl(6-maleimido)}-GGFL-X4) | – | 100 | Enzymatic cleavage efficiency % (cathepsin L; cathepsin L, within 20 h): 91.0%
3 | COc1cccc2c1C(=O)c1c(O)c3c(c(O)c1C2=O)C[C@@](O)(C(=O)CO)C[C@@H]3O[C@H]1C[C@H](NC(=O)[C@H](CC(C)C)NC(=O)[C@H](Cc2ccccc2)NC(=O)CNC(=O)CNC(=O)CCCCCN2C(=O)C=CC2=O)[C@H](O)[C@H](C)O1 [S1] ({Hexanoyl(6-maleimido)}-GGFL-{Doxorubicin(3'-N)}) | 90.5 | – | Generated load % [2]: 0.0%; Substrate content % [2]: 100%
4 | CCc1c2c(nc3ccc(OCNC(=O)[C@H](CC(C)C)NC(=O)[C@H](Cc4ccccc4)NC(=O)CNC(=O)CNC(=O)CCCCCN4C(=O)C=CC4=O)cc13)-c1cc3c(c(=O)n1C2)COC(=O)[C@]3(O)CC [S14] ({Hexanoyl(6-maleimido)}-GGFL-X5) | 98.0 | 98.0 | –
5 | CC[C@@]1(O)C(=O)OCc2c1cc1n(c2=O)Cc2c-1nc1cc(F)c(C)c3c1c2[C@@H](NC(=O)COCNC(=O)[C@H](CC(C)C)NC(=O)[C@H](Cc1ccccc1)NC(=O)CNC(=O)CNC(=O)CCOCCOCCOCCNC(=O)CCC(=O)N1Cc2ccccc2C#Cc2ccccc21)CC3 [S34] ({DBCO-Suc-PEG3}-GGFL[NHCH2OCH2CO]-Exatecan) | 98.1 | 98.3 | –
6 | CC[C@@]1(O)C(=O)OCc2c1cc1n(c2=O)Cc2c-1nc1cc(F)c(C)c3c1c2[C@@H](NC(=O)CCCNC(=O)[C@H](CC(C)C)NC(=O)[C@H](Cc1ccccc1)NC(=O)CNC(=O)CNC(=O)CCOCCOCCOCCNC(=O)CCC(=O)N1Cc2ccccc2C#Cc2ccccc21)CC3 [S32] ({DBCO-Suc-PEG3}-GGFL[GABA]-Exatecan) | 98.0 | 100 | –
7 | CCc1c2c(nc3ccc(O)cc13)-c1cc3c(c(=O)n1C2)COC(=O)[C@@]3(CC)OCNC(=O)[C@H](CC(C)C)NC(=O)[C@H](Cc1ccccc1)NC(=O)CNC(=O)CNC(=O)CCCCCN1C(=O)C=CC1=O [S15] ({Hexanoyl(6-maleimido)}-GGFL-X8) | 95.1 | – | –
8 | CC[C@@]1(O)C(=O)OCc2c1cc1n(c2=O)Cc2c-1nc1cc(F)c(C)c3c1c2[C@@H](NC(=O)COCNC(=O)[C@@H](N)CC(C)C)CC3 [L-AM-DXD, Leu-AM-DXd, reference compound] | – | – | DXD produced, share of the reaction substrate (enzymatic cleavage activation efficiency) (cathepsin L; pH 6): 1.45%
9 | CC[C@@]1(O)C(=O)OCc2c1cc1n(c2=O)Cc2c-1nc1cc(F)c(C)c3c1c2[C@@H](NC(=O)[C@H](CC(C)C)NC(=O)[C@H](Cc1ccccc1)NC(=O)CNC(=O)CNC(=O)CCN1C(=O)C=C(Br)C1=O)CC3 [S26] (X6-GGFL-Exatecan) | 95.1 | 100 | –
10 | CC(C)C[C@H](NC(=O)[C@H](Cc1ccccc1)NC(=O)CNC(=O)CNC(=O)CCCCCN1C(=O)C=CC1=O)C(=O)NCOC[C@H]1O[C@@H](n2ccc(N)nc2=O)C(F)(F)[C@@H]1O [S16] ({Hexanoyl(6-maleimido)}-GGFL-X9) | 92.3 | – | –
11 | CC[C@@]1(O)C(=O)OCc2c1cc1n(c2=O)Cc2c-1nc1cc(F)c(C)c3c1c2[C@@H](NC(=O)COCNC(=O)[C@H](CC(C)C)NC(=O)[C@H](Cc1ccccc1)NC(=O)CNC(=O)CNC(=O)CCCCCN1C(=O)C=CC1=O)CC3 [S6] ({Hexanoyl(6-maleimido)}-GGFL[NHCH2OCH2CO]-Exatecan) | 98.0 | 98.0 | Generated load % [1]: 2.0%
12 | CC[C@@]1(O)C(=O)OCc2c1cc1n(c2=O)Cc2c-1nc1cc(F)c(C)c3c1c2[C@@H](NC(=O)COCNC(=O)[C@H](CC(C)C)NC(=O)[C@H](Cc1ccccc1)NC(=O)CNC(=O)CNC(=O)CCCCCOC1O[C@H](CO)[C@H](O)[C@H](O)[C@H]1NC(C)=O)CC3 (stereo partly shown) [S18] (Ac-[X1]GGFL[NHCH2OCH2CO]-Exatecan) | 98.3 | 98.2 | Anti-tumor rate% Day 20 (Human Fibrosarcoma): 95%; Tumor volume(mm^3) Day 20 (Human Fibrosarcoma): 40 mm^3; treatment efficacy compared with DXd (Human Fibrosarcoma): significantly improved treatment efficacy
13 | CC[C@@]1(O)C(=O)OCc2c1cc1n(c2=O)Cc2c-1nc1cc(F)c(C)c3c1c2[C@@H](NC(=O)CCCNC(=O)[C@H](CC(C)C)NC(=O)[C@H](Cc1ccccc1)NC(=O)CNC(=O)CNC(=O)CCOCCOCCOCCNC(=O)OC1[C@H]2CCC#CCC[C@@H]12)CC3 (stereo partly shown) [S28] ({X7-PEG3}-GGFL[GABA]-Exatecan) | 95.1 | 100 | –
14 | CCCCc1nc2c(N)nc3ccccc3c2n1CCCCNC(=O)[C@H](CC(C)C)NC(=O)[C@H](Cc1ccccc1)NC(=O)CNC(=O)CNC(=O)CCOCCOCCOCCNC(=O)OC1[C@H]2CCC#CCC[C@@H]12 (stereo partly shown) [S27] | – | 100 | Enzymatic cleavage efficiency % (cathepsin L; cathepsin L, within 20 h): 94.5%
15 | CC[C@@]1(O)C(=O)OCc2c1cc1n(c2=O)Cc2c-1nc1cc(F)c(C)c3c1c2[C@@H](NC(=O)COCNC(=O)[C@H](CC(C)C)NC(=O)[C@H](Cc1ccccc1)NC(=O)CNC(=O)CNC(=O)[C@H](CCCCNC(=O)COCCOCCOCCOCCOCCOC)NC(=O)CCCCCN1C(=O)C=CC1=O)CC3 [S8] ({Hexanoyl(6-maleimido)}-K(X2)GGFL[NHCH2OCH2CO]-Exatecan) | 98.0 | 98.0 | Anti-tumor rate% Day 20 (Human Fibrosarcoma): 98%; Tumor volume(mm^3) Day 20 (Human Fibrosarcoma): 15 mm^3; treatment efficacy compared with DXd (Human Fibrosarcoma): significantly improved treatment efficacy
16 | CCCCc1nc2c(N)nc3ccccc3c2n1CCCCNC(=O)[C@H](CC(C)C)NC(=O)[C@H](Cc1ccccc1)NC(=O)CNC(=O)CNC(=O)CCOCCOCCOCCNC(=O)CCC(=O)N1Cc2ccccc2C#Cc2ccccc21 [S31] ({DBCO-Suc-PEG3}-GGFL-X4) | 97.5 | – | –
17 | CC[C@@]1(O)C(=O)OCc2c1cc1n(c2=O)Cc2c-1nc1cc(F)c(C)c3c1c2[C@@H](NC(=O)[C@H](CC(C)C)NC(=O)[C@H](Cc1ccccc1)NC(=O)CNC(=O)CNC(=O)CCCCCN1C(=O)C=CC1=O)CC3 [S2] ({Hexanoyl(6-maleimido)}-GGFL-Exatecan) | 91.1 | 100 | –
